Assay results as given in ChEMBL document CHEMBL1201862, “PubChem BioAssay data set” (2004).
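Assay format: 96-well plates, 48-hour exposure. GI50 is the concentration that inhibits growth by half.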 Active and inactive are the calls of the source. Rule as the data show it: active = GI50 up to about 1.1 µM and inactive = higher.

Tests used:
Assay in all cases: NCI tumour cell line growth inhibition, 48 h
[1] = system: NCI/ADR-RES
[2] = system: Hs-578T
[3] = system: MDA-N
[4] = system: Malme-3M
[5] = system: SK-OV-3
[6] = system: DU-145
[7] = system: MDA-MB-435
[8] = system: OVCAR-5
[9] = system: BT-549
[10] = system: CAKI-1
[11] = system: ACHN
[12] = system: A498
[13] = system: KM12
[14] = system: SK-MEL-28
[15] = system: NCI-H23
[16] = system: LOX IMVI
[17] = system: K562
[18] = system: SNB-75
[19] = system: SR

Measured: GI50

CC(C)(C)OC(=O)N1C(=O)OC[C@@H]2C=C[C@@H]21
inactive: [1] > 100 µM | [2] > 100 µM | [3] > 100 µM | [4] > 100 µM | [5] > 100 µM | [6] > 100 µM | [7] > 100 µM | [8] > 100 µM | [9] > 100 µM | [10] > 100 µM | [11] > 100 µM | [12] > 100 µM | [13] > 100 µM | [14] > 100 µM | [15] > 100 µM | [16] > 100 µM

C1CSCCSCCSCCSCCS1
inactive: [1] > 100 µM | [2] > 100 µM | [3] > 100 µM | [5] > 100 µM | [6] > 100 µM | [7] > 100 µM | [8] > 100 µM | [9] > 100 µM | [10] > 100 µM | [11] > 100 µM | [12] > 100 µM | [13] > 100 µM | [17] > 100 µM | [18] > 100 µM | [14] > 100 µM | [15] > 100 µM | [16] > 100 µM

CC(C)(C)[Si](C)(C)OCCc1ccccc1C1CC2(S(=O)(=O)c3ccccc3)ON1CC2S(=O)(=O)c1ccccc1 (stereo not drawn)
inactive: [1] > 100 µM | [2] > 100 µM | [3] > 100 µM | [5] > 100 µM | [6] > 100 µM | [7] > 100 µM | [8] > 100 µM | [9] > 100 µM | [11] > 100 µM | [12] > 100 µM | [13] > 100 µM | [17] > 100 µM | [18] > 100 µM | [14] > 100 µM | [15] > 100 µM

CC1C(c2ccccc2O)c2cc3c(cc2OC1N1CCCC1)OCO3 (stereo not drawn)
inactive: [2] 18.2 µM | [3] 18.8 µM | [4] 25.3 µM | [5] 88.7 µM | [6] 45.1 µM | [7] 26.9 µM | [8] 32.2 µM | [9] 32.3 µM | [10] 34.7 µM | [11] 32.7 µM | [12] 23.2 µM | [13] 33.5 µM | [19] 18.8 µM | [17] 20 µM | [18] 22.2 µM | [14] 20.4 µM | [15] 39 µM | [16] 18.4 µM

CNC(=O)CN(C)C(=O)CCC(=O)N(C)C
inactive: [1] > 100 µM | [2] > 100 µM | [3] > 100 µM | [4] > 100 µM | [5] > 100 µM | [6] > 100 µM | [7] > 100 µM | [8] > 100 µM | [9] > 100 µM | [10] > 100 µM | [11] > 100 µM | [12] > 100 µM | [13] > 100 µM | [17] > 100 µM | [18] > 100 µM | [14] > 100 µM | [15] > 100 µM | [16] > 100 µM

O=C1Nc2ccccc2/C1=N/Nc1ncccc1[N+](=O)[O-]
inactive: [1] 9.25 µM | [2] 31.6 µM | [3] 27.1 µM | [4] 17.3 µM | [5] 12.1 µM | [6] 14.6 µM | [7] 16.8 µM | [8] 12.6 µM | [9] 11.5 µM | [11] 4.69 µM | [12] 71.3 µM | [13] 3.42 µM | [17] 3.95 µM | [18] 1.39 µM | [14] 22.6 µM | [16] 7.55 µM

O=S(=O)(O)c1ccc2c(/N=N/c3ccc(Cl)cc3)c(O)ccc2c1
inactive: [1] > 100 µM | [2] > 100 µM | [3] > 100 µM | [4] > 100 µM | [5] > 100 µM | [6] > 100 µM | [7] > 100 µM | [8] > 100 µM | [9] > 100 µM | [10] > 100 µM | [11] > 100 µM | [12] > 100 µM | [13] > 100 µM | [17] > 100 µM | [18] > 100 µM | [14] > 100 µM | [15] > 100 µM | [16] > 100 µM

CO/C(N)=C(C#N)/N=C/c1cccs1
inactive: [1] 98.2 µM | [2] 66.2 µM | [3] 27.4 µM | [4] 35.3 µM | [5] > 100 µM | [6] > 100 µM | [7] 25.8 µM | [8] > 100 µM | [9] 95.1 µM | [10] 24.3 µM | [11] > 100 µM | [12] 33.2 µM | [13] > 100 µM | [17] 42.2 µM | [18] 73.5 µM | [14] 45.4 µM | [15] > 100 µM | [16] 42.6 µM

Nc1ccccc1/C=C\c1ccccc1
inactive: [1] > 100 µM | [2] > 100 µM | [3] > 100 µM | [4] > 100 µM | [5] > 100 µM | [6] > 100 µM | [7] > 100 µM | [8] > 100 µM | [9] > 100 µM | [11] > 100 µM | [13] > 100 µM | [17] > 100 µM | [18] > 100 µM | [14] > 100 µM | [15] > 100 µM

Cc1c(C)c(C)c(Cn2[nH]c(=O)n(C)c2=O)c(C)c1C
inactive: [1] > 100 µM | [2] > 100 µM | [3] > 100 µM | [4] > 100 µM | [5] > 100 µM | [6] > 100 µM | [7] > 100 µM | [9] > 100 µM | [10] > 100 µM | [11] > 100 µM | [12] > 100 µM | [13] > 100 µM | [17] > 100 µM | [18] > 100 µM | [14] > 100 µM | [15] > 100 µM | [16] > 100 µM

N#CC1(C#N)C2CCCCC23OC(=N)C1(C#N)C(c1ccco1)O3 (stereo not drawn)
inactive: [1] 44.3 µM | [2] 30.8 µM | [3] 17.4 µM | [4] 23.7 µM | [5] > 100 µM | [6] 25.9 µM | [7] 19.8 µM | [8] 24.9 µM | [9] 15.6 µM | [10] 11.6 µM | [11] 28.5 µM | [12] 21.9 µM | [13] 33.8 µM | [17] 8.38 µM | [18] 55.5 µM | [14] 15.6 µM | [15] 26.1 µM | [16] 17.2 µM

CN1CCN(CCCBr)CC1
inactive: [1] > 100 µM | [2] > 100 µM | [3] > 100 µM | [4] > 100 µM | [5] > 100 µM | [6] > 100 µM | [7] > 100 µM | [8] > 100 µM | [9] > 100 µM | [11] > 100 µM | [12] > 100 µM | [13] > 100 µM | [17] > 100 µM | [18] > 100 µM | [14] > 100 µM | [15] > 100 µM | [16] > 100 µM
